Experiment: mn = molality of the nth substance listed, in mol/kg
Conditions: Liquid, Constant-volume piezometry

[Br-].[NH4+] [ammonium bromide] + N
mass density [kg/m3]
Conditions	303.15 K	313.15 K	323.15 K	333.15 K	343.15 K	353.15 K	363.15 K	373.15 K
10000 kPa, m1 = 1.143	675.9	661.3	646.8	630.2	612.8	594.5	576	–
10000 kPa, m1 = 2.601	750.8	737.8	724.3	709.5	693.7	676.6	659.3	–
10000 kPa, m1 = 4.381	829	817.3	805	791.1	778.3	765.5	748.7	737.7
10000 kPa, m1 = 7.359	939.1	926.8	914.3	903.1	891.2	878.6	866.4	854.6
10000 kPa, m1 = 10.35	1028.9	1017	1005.2	994.4	983.9	973	961.1	950.1
10000 kPa, m1 = 15.17	1126.2	1116.9	1105.9	1096	1086.6	–	1067.8	1057.7
15000 kPa, m1 = 1.143	679.5	665.1	651.2	635.4	618.5	601.3	583.7	569.5
15000 kPa, m1 = 2.601	754.5	741.4	727.7	714	698.1	681.9	665.4	652.4
15000 kPa, m1 = 4.381	832.7	820.9	808.9	795.1	782.6	769.6	754.3	742.9
15000 kPa, m1 = 7.359	942.7	929.8	917.4	906.7	894.7	882.5	870.2	858.5
15000 kPa, m1 = 10.35	1032.2	1020.3	1008.3	997.8	987.4	976.5	965.6	954.3
15000 kPa, m1 = 15.17	1128.1	1118.8	1107.8	1098.2	1089.1	–	1070.1	1060.3
20000 kPa, m1 = 1.143	682.7	668.9	655.4	640.3	624.1	607.9	590.9	577.4
20000 kPa, m1 = 2.601	758	745	731.4	718.3	702.6	687.1	671.2	658.4
20000 kPa, m1 = 4.381	836.1	824.2	812.6	799.1	786.7	773.8	759.5	748
20000 kPa, m1 = 7.359	945.8	932.8	920.3	909.8	898.2	886.2	873.8	862.2
20000 kPa, m1 = 10.35	1034.9	1023.2	1011.2	1001.2	991.3	979.8	969	958
20000 kPa, m1 = 15.17	1130.1	1120.4	1109.7	1100.3	1091.2	–	1072.4	1062.6
25000 kPa, m1 = 1.143	686.3	672.6	659.7	645.1	629.9	614.6	598.2	585.2
25000 kPa, m1 = 2.601	761.3	748.6	734.9	722.5	707.2	692	677.1	664.3
25000 kPa, m1 = 4.381	839.1	827.6	816.1	803	790.7	778.1	764.4	752.9
25000 kPa, m1 = 7.359	948.9	935.5	923	912.7	901.6	889.7	877.4	865.9
25000 kPa, m1 = 10.35	1037.4	1025.9	1014.1	1004	993.6	983	972.5	961.3
25000 kPa, m1 = 15.17	1132	1122	1111.5	1102.2	1093.3	–	1074.8	1065.1
30000 kPa, m1 = 1.143	689.5	676.3	663.8	649.5	635.4	621.2	605.2	592.7
30000 kPa, m1 = 2.601	764.4	752.1	738.7	726.3	711.7	697	682.6	670
30000 kPa, m1 = 4.381	842.1	830.7	819.4	807.1	794.2	782.2	769	757.6
30000 kPa, m1 = 7.359	951.2	938	926	915.6	904.9	893.2	881.3	870
30000 kPa, m1 = 10.35	1039.8	1028.6	1016.7	1006.9	995.8	986.6	975.7	964.7
30000 kPa, m1 = 15.17	1134	1123.6	1113.4	1104	1095.4	–	1076.8	1067.1
